The source made the active and inactive calls. No cut-off for these calls is given here.
What was measured:
hTERT-BJ [1] = assay: Cytotoxicity against hTERT-BJ cells after 48 hrs by resazurin dye-based fluorescence assay; type: cell-based; settings: Homo sapiens
PANC-1 [2] = assay: Effect on CYP1A1 gene expression in human PANC1 cells at IC50 after 48 hrs by microarray analysis; type: ADME, cell-based; settings: panc-1, 48 h
PANC-1 [3] = assay: Effect on PAH gene expression in human PANC1 cells at IC50 after 48 hrs by microarray analysis; type: functional, cell-based
PANC-1 [4] = assay: Effect on TOP2A gene expression in human PANC1 cells at IC50 after 48 hrs by microarray analysis; type: functional, cell-based
HepG2 [5] = assay: Effect on CASP8 gene expression in human HepG2 cells at IC50 after 48 hrs by microarray analysis; type: functional, cell-based
HepG2 [6] = assay: Induction of apoptosis in human HepG2 cells assessed as increase in caspase-3/7 activity after 24 hrs by Caspase-Glo 3/7 luminescence assay; type: functional, cell-based
[7] = Inhibition of GST (unknown origin) using CDNB as substrate by spectrophotometric analysis; settings: human
hTERT-BJ [8] = assay: Cytotoxicity against hTERT-BJ cells at 6.25 uM after 48 hrs by resazurin dye-based fluorescence assay relative to control; type: cell-based; settings: human
HepG2 [9] = assay: Effect on OR5P2 gene expression in human HepG2 cells at IC50 after 48 hrs by microarray analysis; type: functional, cell-based
HepG2 [10] = assay: Effect on TMEM132D gene expression in human HepG2 cells at IC50 after 48 hrs by microarray analysis; type: functional, cell-based
PANC-1 [11] = assay: Effect on LOC407835 gene expression in human PANC1 cells at IC50 after 48 hrs by microarray analysis; type: functional, cell-based
PANC-1 [12] = assay: Effect on GSTM1 gene expression in human PANC1 cells at IC50 after 48 hrs by microarray analysis; type: functional, cell-based
HepG2 [13] = assay: Effect on TOP2A gene expression in human HepG2 cells at IC50 by SYBR green-dye based qRT-PCR analysis relative to beta-actin; type: functional
HepG2 [14] = assay: Effect on WNT2B gene expression in human HepG2 cells at IC50 after 48 hrs by microarray analysis; type: functional, cell-based
HepG2 [15] = assay: Effect on CPB2 gene expression in human HepG2 cells at IC50 after 48 hrs by microarray analysis; type: functional, cell-based
CCRF-CEM = assay: Antiproliferative activity against human CCRF-CEM cells after 48 hrs by resazurin dye-based fluorescence assay; type: functional, cell-based
HepG2 [16] = assay: Effect on GST A1 gene expression in human HepG2 cells at IC50 after 48 hrs by microarray analysis; type: functional, cell-based
PANC-1 [17] = assay: Antiproliferative activity against human PANC1 cells after 48 hrs by resazurin dye-based fluorescence assay; type: functional, cell-based; settings: PANC-1, 48 h
PANC-1 [18] = assay: Effect on ITGA2 gene expression in human PANC1 cells at IC50 after 48 hrs by microarray analysis; type: functional, cell-based
HepG2 [19] = assay: Effect on TUBB1 gene expression in human HepG2 cells at IC50 after 48 hrs by microarray analysis; type: functional, cell-based
[20] = Selectivity index, ratio of IC50 for hTERT-BJ cells to IC50 for human CCRF-CEM cells; type: toxicity; settings: hTERT-BJ cells versus CCRF-CEM cells, read-out: Ratio IC50
HepG2 [21] = assay: Effect on SYT2 gene expression in human HepG2 cells at IC50 after 48 hrs by microarray analysis; type: functional, cell-based
HepG2 [22] = assay: Effect on TOP2B gene expression in human HepG2 cells at IC50 after 48 hrs by microarray analysis; type: functional, cell-based
HepG2 [23] = assay: Effect on GST A2 gene expression in human HepG2 cells at IC50 after 48 hrs by microarray analysis; type: functional, cell-based
HepG2 [24] = assay: Effect on GADD45A gene expression in human HepG2 cells at IC50 after 48 hrs by microarray analysis; type: functional, cell-based
PANC-1 [25] = assay: Effect on EIF5 gene expression in human PANC1 cells at IC50 after 48 hrs by microarray analysis; type: functional, cell-based
PANC-1 [26] = assay: Effect on SDR16C5 gene expression in human PANC1 cells at IC50 after 48 hrs by microarray analysis; type: functional, cell-based
[27] = Selectivity index, ratio of IC50 for hTERT-RPE1 cells to IC50 for human CCRF-CEM cells; type: toxicity; settings: hTERT-RPE1 cells versus CCRF-CEM cells, read-out: Ratio IC50
HepG2 [28] = assay: Effect on CYP1A1 gene expression in human HepG2 cells at IC50 after 48 hrs by microarray analysis; type: ADME, cell-based; settings: hepg2, 48 h
PANC-1 [29] = assay: Effect on CAMK2N1 gene expression in human PANC1 cells at IC50 after 48 hrs by microarray analysis; type: functional, cell-based
HepG2 [30] = assay: Effect on GOLPH4 gene expression in human HepG2 cells at IC50 after 48 hrs by microarray analysis; type: functional, cell-based
HepG2 [31] = assay: Effect on GADD45A gene expression in human HepG2 cells at IC50 by SYBR green-dye based qRT-PCR analysis relative to beta-actin; type: functional
hTERT-BJ [32] = assay: Cytotoxicity against hTERT-BJ cells at 25 uM after 48 hrs by resazurin dye-based fluorescence assay relative to control; type: cell-based; settings: human
HepG2 [33] = assay: Effect on TOP2A gene expression in human HepG2 cells at IC50 after 48 hrs by microarray analysis; type: functional, cell-based
PANC-1 [34] = assay: Effect on HEATR3 gene expression in human PANC1 cells at IC50 after 48 hrs by microarray analysis; type: functional, cell-based
HepG2 [35] = assay: Effect on INHBE gene expression in human HepG2 cells at IC50 after 48 hrs by microarray analysis; type: functional, cell-based
HepG2 [36] = assay: Effect on NAV 2 gene expression in human HepG2 cells at IC50 after 48 hrs by microarray analysis; type: functional, cell-based
HepG2 [37] = assay: Effect on GDF15 gene expression in human HepG2 cells at IC50 after 48 hrs by microarray analysis; type: functional, cell-based
PANC-1 [38] = assay: Effect on TDG gene expression in human PANC1 cells at IC50 after 48 hrs by microarray analysis; type: functional, cell-based
HepG2 [39] = assay: Effect on GST M1 gene expression in human HepG2 cells at IC50 after 48 hrs by microarray analysis; type: functional, cell-based
PANC-1 [40] = assay: Effect on FEZ1 gene expression in human PANC1 cells at IC50 after 48 hrs by microarray analysis; type: functional, cell-based
HepG2 [41] = assay: Effect on CASP7 gene expression in human HepG2 cells at IC50 by SYBR green-dye based qRT-PCR analysis relative to beta-actin; type: functional
HepG2 [42] = assay: Effect on GADD45G gene expression in human HepG2 cells at IC50 after 48 hrs by microarray analysis; type: functional, cell-based
hTERT-BJ [43] = assay: Cytotoxicity against hTERT-BJ cells at 12.50 uM after 48 hrs by resazurin dye-based fluorescence assay relative to control; type: cell-based; settings: human, 12.5 µM
PANC-1 [44] = assay: Effect on NSBP1 gene expression in human PANC1 cells at IC50 after 48 hrs by microarray analysis; type: functional, cell-based
PANC-1 [45] = assay: Effect on YY1 gene expression in human PANC1 cells at IC50 after 48 hrs by microarray analysis; type: functional, cell-based
TERT-RPE1 = assay: Cytotoxicity against hTERT-RPE1 cells at 12.50 uM after 48 hrs by resazurin dye-based fluorescence assay relative to control; type: cell-based; settings: human, tert-rpe1, 48 h, 12.5 µM
PANC-1 [46] = assay: Effect on PCNA gene expression in human PANC1 cells at IC50 after 48 hrs by microarray analysis; type: functional, cell-based

O=C(N/N=C/c1cc2ccccc2nc1Cl)c1cc2cc(Br)ccc2oc1=O
IC50 (hTERT-BJ [1]): > 50 µM
Activity (PANC-1 [2]): Active
Activity (PANC-1 [3]): Active
Activity (PANC-1 [4]): Active
Activity (HepG2 [5]): Active
Activity (HepG2 [6]): Dose-dependent effect
inhibition (INH) [7]: Dose-dependent effect
Activity (hTERT-BJ [8]): 1.98%
Activity (HepG2 [9]): Active
Activity (HepG2 [10]): Active
Activity (PANC-1 [11]): Active
Activity (PANC-1 [12]): Active
fold change (FC) (HepG2 [13]): -1.54
Activity (HepG2 [14]): Active
Activity (HepG2 [15]): Active
IC50 (CCRF-CEM): 7.45 µM
Activity (HepG2 [16]): Active
IC50 (PANC-1 [17]): 5.45 µM
Activity (PANC-1 [18]): Active
Activity (HepG2 [19]): Active
selectivity ratio [20]: > 6.71
Activity (HepG2 [21]): Active
Activity (HepG2 [22]): Active
Activity (HepG2 [23]): Active
Activity (HepG2 [24]): Active
Activity (PANC-1 [25]): Active
Activity (PANC-1 [26]): Active
selectivity ratio [27]: > 6.71
Activity (HepG2 [28]): Active
Activity (PANC-1 [29]): Active
Activity (HepG2 [30]): Active
fold change (FC) (HepG2 [31]): 3.52
Activity (hTERT-BJ [32]): 3.47%
Activity (HepG2 [33]): Active
Activity (PANC-1 [34]): Active
Activity (HepG2 [35]): Active
Activity (HepG2 [36]): Active
Activity (HepG2 [37]): Active
Activity (PANC-1 [38]): Active
Activity (HepG2 [39]): Active
Activity (PANC-1 [40]): Active
fold change (FC) (HepG2 [41]): 2.45
Activity (HepG2 [42]): Active
Activity (hTERT-BJ [43]): 3.63%
Activity (PANC-1 [44]): Active
Activity (PANC-1 [45]): Active
Activity (TERT-RPE1): 12.73%
Activity (PANC-1 [46]): Active
